Source: patent US12622859B2, “Organic compounds” (GIVAUDAN SA, priority 2017, dated 2026)

Assays:
[1] = Stability in water; assay type: physicochemical
Excerpt: (§1) Consequently, the extract is preferably obtained by extracting the compounds from plant material using an alcohol, and more particularly ethanol. It is particularly preferred if the alcohol is water-free.

[2] = Solubility in water; assay type: physicochemical
Excerpt: as §1

| stability in water [1] | solubility in water [2] | Compound |
| --- | --- | --- |
| unstable in water | water-soluble | C[C@@H]1O[C@@H](O[C@@H]2[C@@H](O)[C@H](OCCc3ccc(O)c(O)c3)O[C@H](CO)[C@H]2OC(=O)/C=C/c2ccc(O)c(O)c2)[C@H](O)[C@H](O)[C@H]1O [acteoside] |
| unstable in water | water-soluble | C[C@@H]1O[C@@H](O[C@@H]2[C@H]3O[C@@H](c4ccc(O)c(O)c4)CO[C@@H]3O[C@H](CO)[C@H]2OC(=O)/C=C/c2ccc(O)c(O)c2)[C@H](O)[C@H](O)[C@H]1O [crenatoside] |
